Measurements: US20050214285A1, “Epitopes or mimotopes derived from the C-epsilon-3 or C-epsilon-4 domains of IgE, antagonists thereof, and their therapeutic uses” (SmithKline Beecham Biologicals, s.a. and Peptide …, priority 1999, published 2005)
pKd: −log10 of the molar value. Like-named read-outs stand apart in the source and are kept apart here. Positions of bridges follow the written chain, without caps; N, C: chain ends. Residues, ends and D or L forms follow the SMILES beside them. No end group written: not given here.

Tests used:
PTmAb0005 [1] = assay: BIAcore affinity to PTmAb0005; type: binding; conditions: for Kd: read-out: PTmAb BIAcore KD^Rel (μM) PTmAb0005
From the text: (§1) This involved a DNA sub-cloning transfer from the major coat protein (gVIIIp) filamentous phage display vector to a lower copy number minor phage coat protein (gIIIp) display vector with a random PCR step. […] Included in the tables are ranking orders and also BIAcore affinities where available.
(§2) Thus indicating the importance of correct presentation of the peptides of the present invention to adopt a shape which closely resembles the native target in the context of the whole IgE molecule. [drawing]

PTmAb0011 [2] = assay: BIAcore affinity to PTmAb0011; type: binding, mouse; conditions: for Kd: read-out: PTmAb BIAcore KD^Rel (μM) PTmAb0011
From the text: as §1, §2

PTmAb0005 [3] = assay: Phage display ranking of peptide ligands for PTmAb0005; type: binding; conditions: for Rank (ECL) PTmAb0005: primary phage display biopannings (Table 6); for PTmAb Rank 0005: IgEC67 mutants (Table 8)
Method: (§3) Phage display libraries were used to map the binding sites of the monoclonal antibodies using three different phage libraries, displaying either the XCX15, XCX10 or XAX10 peptide sequence (where X is any amino acid) at the N-terminus of the phage gVIIIp. Tables 6 and 7 show the results of selecting for peptide ligands with the anti human IgE monoclonal antibodies […]. […]
This was performed by introducing random mutations by PCR mutagenesis and sub-cloning into the Fuse 5 vector for minor filamentous phage protein gIIIp display. These, and other results, confirmed the importance of the amino acids within IgEC67 which aligned with the Cε2 epitope. […] Mutations in other sites had little effect on the affinity to PTmAb0005.
as §1

PTmAb0011 [4] = assay: Phage display ranking of peptide ligands for PTmAb0011; type: binding, mouse; conditions: IgEC67 mutants (Table 8)
From the text: as §3, §1

Compound	Kd (PTmAb0005 [1]) [µM]	Rank (ECL) PTmAb0005 (PTmAb0005 [3])	Kd (PTmAb0011 [2]) [µM]	PTmAb Rank 0005 (PTmAb0005 [3])	PTmAb Rank 0011 (PTmAb0011 [4])	further results
CLEDGQVMDVDCPREAAEGDK (disulfide 1-12 (inferred)) [PT1078, P1 mimotope]						binding of the peptide to PTmAb0005 compared with PT1079 (PTmAb0005 [1]): reduced the binding; binding of the peptide to PTmAb0011 compared with PT1079 (PTmAb0011 [2]): reduced the binding
CSCC[C@H](NC(=O)[C@H](CC(N)=O)NC(=O)[C@@H](NC(=O)[C@@H](NC(=O)[C@H](CCC(N)=O)NC(=O)[C@@H](NC(=O)[C@H](CC(=O)O)NC(=O)[C@@H](NC(=O)[C@@H](NC(=O)[C@H](CS)NC(=O)[C@@H](N)CS)C(C)C)[C@@H](C)O)C(C)C)[C@@H](C)O)[C@@H](C)O)C(=O)N[C@@H](CC(=O)O)C(=O)N[C@H](C(=O)N1CCC[C@H]1C(=O)N[C@@H](C)C(=O)NCC(=O)N[C@@H](CCC(N)=O)C(=O)O)C(C)C [IgEC81] (H-CCVTDVQTTNMDVPAGQ-OH)	78	0	6.3			
CSCC[C@@H]1NC(=O)[C@H](Cc2ccccc2)NC(=O)[C@@H](N)CSSC[C@@H](C(=O)N2CCC[C@H]2C(=O)N[C@@H](CCCNC(=N)N)C(=O)N[C@@H](CCC(=O)O)C(=O)O)NC(=O)[C@H](CC(C)C)NC(=O)[C@H](CCC(=O)O)NC(=O)[C@H](CC(C)C)NC(=O)[C@H](CC(=O)O)NC(=O)[C@H](C)NC(=O)[C@H](CC(C)C)NC(=O)[C@H](CCC(N)=O)NC(=O)[C@H](CCCCN)NC(=O)[C@H](CC(N)=O)NC1=O [IgEC67] (H-CFMNKQLADLELCPRE-OH; disulfide 1-13)	0.1	243	4.8			binding / affinity to PTmAb0005 (PTmAb0005 [3]; IgEC67 and its mutants, gIIIp display): highest affinity
VAGGQVVDRELK [ESB10/38]	139	0	> 1000			
CSCC[C@H](NC(=O)[C@H](CCC(N)=O)NC(=O)[C@H](CC(C)C)NC(=O)CNC(=O)[C@H](CCC(=O)O)NC(=O)[C@H](CC(C)C)NC(=O)[C@@H](NC(=O)[C@H](C)NC(=O)[C@H](CC(N)=O)NC(=O)[C@H](CS)NC(=O)[C@@H](N)CCC(N)=O)C(C)C)C(=O)N[C@H](C(=O)N[C@@H](CC(=O)O)C(=O)N[C@@H](Cc1c[nH]cn1)C(=O)N[C@@H](CS)C(=O)N[C@@H](Cc1c[nH]c2ccccc12)C(=O)N[C@@H](CC(N)=O)C(=O)O)C(C)C [IgEC26] (H-QCNAVLEGLQMVDHCWN-OH)	3	43	53.4			
GAMTAGQLSDLP [ESB25]	60	0	> 1000			
CC[C@H](C)[C@H](NC(=O)[C@H](CCCCN)NC(=O)[C@H](CC(C)C)NC(=O)[C@H](CS)NC(=O)[C@@H](N)CCC(=O)O)C(=O)N[C@@H](CCC(=O)O)C(=O)N[C@@H](CCC(N)=O)C(=O)N[C@@H](CCC(N)=O)C(=O)N[C@@H](CS)C(=O)N[C@@H](C)C(=O)N[C@@H](CC(=O)O)C(=O)N[C@H](C(=O)N[C@H](C(=O)N[C@@H](CCC(=O)O)C(=O)N[C@H](C(=O)N1CCC[C@H]1C(=O)N[C@@H](CCCNC(=N)N)C(=O)O)[C@@H](C)CC)C(C)C)[C@@H](C)CC [IgEC42] (H-ECLKIEQQCADIVEIPR-OH)	19.4	15	> 500			
KAGEQAMDMELR [ESB8]	257	0	> 1000			
CC[C@H](C)[C@H](NC(=O)CNC(=O)[C@@H]1CCCN1C(=O)[C@H](CCC(N)=O)NC(=O)[C@H](Cc1c[nH]cn1)NC(=O)[C@@H]1CCCN1C(=O)[C@@H](NC(=O)[C@H](CC(=O)O)NC(=O)[C@H](CO)NC(=O)[C@H](CCC(N)=O)NC(=O)[C@H](CS)NC(=O)[C@@H](N)CS)C(C)C)C(=O)N[C@@H](CC(N)=O)C(=O)N[C@@H](CC(=O)O)C(=O)N[C@@H](CC(C)C)C(=O)N[C@@H](Cc1c[nH]cn1)C(=O)N[C@H](C(=O)O)C(C)C [IgEC73] (H-CCQSDVPHQPGINDLHV-OH)	> 600	0	> 600			
ADGAGCFMNKQMADWEMCPRAAAEA [IgEC67-11]				1.8	1.9	
ADGAGCFMNKQLADLEMCPRDDAEA [IgEC67-9]				2.7	2.4	
ADGAGCFMNKQLVDLELCPRGAAEA [IgEC67-5]				1.9	1.6	
ADGAGCFMNKQMADLELCPREAAEA [IgEC67-10]				4.2	2.3	
ADGAGCFINKQLADLELCPRVAAEA [IgEC67-3]				3	1.7	
CC(C)[C@H](NC(=O)[C@H](CC(=O)O)NC(=O)[C@H](CO)NC(=O)[C@@H]1CSSC[C@H](NC(=O)[C@@H](N)CO)C(=O)N[C@@H](C)C(=O)N[C@@H](Cc2ccc(O)cc2)C(=O)N[C@@H]([C@@H](C)O)C(=O)N[C@@H](C)C(=O)N[C@@H](CCC(N)=O)C(=O)N[C@@H](CCCNC(=N)N)C(=O)N[C@@H](CCC(N)=O)C(=O)N1)C(=O)N1CCC[C@H]1C(=O)N[C@@H](CC(N)=O)C(=O)N1CCC[C@H]1C(=O)NCC(=O)O [IgEC69] (H-SCAYTAQRQCSDVPNPG-OH; disulfide 2-10)	6.6	11	6.4			
ADGAECFMNKQLADSELCPRVAAEA [IgEC67-13]				1.1	0.8	
ADGAGCFINKQLADLELCPREAAEA [IgEC67-12]				3	1.9	
CSCC[C@@H]1NC(=O)[C@H](C(C)C)NC(=O)[C@H](CCC(N)=O)NC(=O)CNC(=O)[C@H](CC(=O)O)NC(=O)[C@H](CCC(=O)O)NC(=O)[C@H](CC(C)C)NC(=O)[C@@H](NC(C)=O)CSSC[C@@H](C(=O)N2CCC[C@H]2C(=O)N[C@@H](CCCNC(=N)N)C(=O)N[C@@H](CCC(=O)O)C(=O)N[C@@H](C)C(=O)N[C@@H](C)C(=O)N[C@@H](CCC(=O)O)C(=O)NCC(=O)N[C@@H](CC(=O)O)C(=O)N[C@@H](CCCCNC(C)=O)C(N)=O)NC(=O)[C@H](CC(C)C)NC(=O)[C@H](CC(=O)O)NC(=O)[C@H](C(C)C)NC(=O)[C@H](CC(=O)O)NC1=O [PT1079] (Ac-CLEDGQVMDVDLCPREAAEGDK(Ac)-NH2; disulfide 1-13)						pKd (PTmAb0005 [1]; BIAcore, read-out: apparent affinity to PTmAb0005): 7.70
CSCC[C@H](NC(=O)[C@@H](NC(=O)[C@H](Cc1ccccc1)NC(=O)[C@H](CCC(N)=O)NC(=O)[C@H](CCCNC(=N)N)NC(=O)[C@H](CS)NC(=O)[C@@H](N)CCC(N)=O)C(C)C)C(=O)N[C@@H](CC(N)=O)C(=O)N[C@@H](CCC(N)=O)C(=O)N[C@@H](CO)C(=O)N[C@@H](CCC(=O)O)C(=O)N[C@@H](CCCCN)C(=O)N[C@@H](CCC(=O)O)C(=O)N[C@@H](Cc1ccccc1)C(=O)NCC(=O)N[C@@H](CCC(N)=O)C(=O)N[C@@H](CS)C(=O)O [IgEC56] (H-QCRQFVMNQSEKEFGQC-OH)	60	0	> 1000			
CSCC[C@H](NC(=O)[C@H](CCC(=O)O)NC(=O)[C@H](CO)NC(=O)[C@H](CO)NC(=O)[C@@H]1CCCN1C(=O)[C@@H](NC(=O)[C@H](CCSC)NC(=O)[C@H](CCC(N)=O)NC(=O)[C@@H](NC(=O)[C@H](CCC(=O)O)NC(=O)[C@@H]1CCCN1C(=O)[C@H](CC(=O)O)NC(=O)[C@H](C)NC(=O)[C@@H](NC(=O)[C@H](CS)NC(=O)[C@@H](N)CS)C(C)C)[C@@H](C)O)[C@@H](C)O)C(=O)N[C@@H](Cc1ccccc1)C(=O)O [IgEC29] (H-CCVADPETQMTPSSEMF-OH)	> 600	40	> 600			
CSCC[C@H](NC(=O)[C@H](CCC(N)=O)NC(=O)CNC(=O)[C@H](Cc1ccc(O)cc1)NC(=O)[C@@H](NC(=O)[C@H](CC(C)C)NC(=O)[C@H](CS)NC(=O)[C@@H](N)CCC(=O)O)C(C)C)C(=O)N[C@@H](C)C(=O)N[C@@H](CC(=O)O)C(=O)N[C@@H](CS)C(=O)N[C@@H](C)C(=O)N[C@@H](C)C(=O)NCC(=O)NCC(=O)N[C@@H](Cc1c[nH]c2ccccc12)C(=O)N1CCC[C@H]1C(=O)O [IgEC13] (H-ECLVYGQMADCAAGGWP-OH)	> 1000	5	> 1000			
CC[C@H](C)[C@H](NC(=O)[C@@H]1CCCN1C(=O)[C@H](CC(C)C)NC(=O)CNC(=O)[C@H](CCCNC(=N)N)NC(=O)[C@H](CC(N)=O)NC(=O)[C@@H]1CCCN1C(=O)[C@H](CC(=O)O)NC(=O)[C@H](C)NC(=O)[C@@H]1CCCN1C(=O)[C@H](CO)NC(=O)[C@H](CC(=O)O)NC(=O)[C@H](CO)NC(=O)[C@H](CCSC)NC(=O)[C@H](CS)NC(=O)[C@@H](N)CS)C(=O)N[C@@H](Cc1c[nH]c2ccccc12)C(=O)O [IgEC66] (H-CCMSDSPADPNRGLPIW-OH)	> 600	0	> 600			
